Test results taken from paper PMC3821638, “Molecular Cloning and Characterization of the Calcineurin Subunit A from Plutella xylostella” (International Journal of Molecular Sciences, 2013).
Read-outs that look alike come from different tables or passages of the source.

Target: T1, Calcineurin subunit A (PxCNA), catalytic domain PxCNα (Plutella xylostella, UniProt V5U5Q7)
T1 construct: catalytic (phosphatase) domain CNA1–341 (PxCNα), His-tagged, expressed in E. coli
Assay: pNPP phosphatase assay with purified recombinant rPxCNα, dose-response and enzyme kinetics
Format: biochemical

T1 sequence (V5U5Q7 1-341): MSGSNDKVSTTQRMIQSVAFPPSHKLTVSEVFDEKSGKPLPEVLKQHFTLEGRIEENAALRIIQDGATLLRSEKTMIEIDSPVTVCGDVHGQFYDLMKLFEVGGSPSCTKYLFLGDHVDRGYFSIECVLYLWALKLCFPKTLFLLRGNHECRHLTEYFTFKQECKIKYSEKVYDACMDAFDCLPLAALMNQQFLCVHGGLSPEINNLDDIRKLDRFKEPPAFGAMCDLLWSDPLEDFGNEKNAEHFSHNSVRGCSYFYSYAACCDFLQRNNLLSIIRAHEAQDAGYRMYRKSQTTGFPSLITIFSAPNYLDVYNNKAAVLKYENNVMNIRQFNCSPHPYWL

SMILES	IC50	IC50 (read-out: IC50)
C[C@@]12C(=O)OC(=O)[C@]1(C)[C@H]1CC[C@@H]2O1 [CTD, cantharidin]	77.6 µM	
C=C1[C@@H](O)[C@@H]2O[C@]3(CC[C@H](/C=C/[C@@H](C)[C@@H]4CC(C)=C[C@@]5(O[C@H](C[C@@](C)(O)C(=O)O)CC[C@H]5O)O4)O3)CC[C@H]2O[C@@H]1[C@@H](O)C[C@H](C)[C@H]1O[C@@]2(CCCCO2)CC[C@H]1C [OA, okadaic acid]		8.95 µM
